pIC50, pKi: −log10 of the molar value. A value given as a limit tells only on which side of the number the result lay.

The target of assay [1] is EGFR (human) (UniProt P00533). The following applies: A431.
Assay [2] deals with EGFR (mouse) (UniProt P00533). Particulars: balb/mk cells.
The target of assay [3] is EGFR (human) (UniProt P00533). The following applies: a431.
Assay [4] deals with EGFR (human) (UniProt P00533). The following applies: for inhibition: a431, concentration not given here.
The target in assay [5] is EGFR (UniProt P00533).
Chain of EGFR (P00533 whole entry, looked up): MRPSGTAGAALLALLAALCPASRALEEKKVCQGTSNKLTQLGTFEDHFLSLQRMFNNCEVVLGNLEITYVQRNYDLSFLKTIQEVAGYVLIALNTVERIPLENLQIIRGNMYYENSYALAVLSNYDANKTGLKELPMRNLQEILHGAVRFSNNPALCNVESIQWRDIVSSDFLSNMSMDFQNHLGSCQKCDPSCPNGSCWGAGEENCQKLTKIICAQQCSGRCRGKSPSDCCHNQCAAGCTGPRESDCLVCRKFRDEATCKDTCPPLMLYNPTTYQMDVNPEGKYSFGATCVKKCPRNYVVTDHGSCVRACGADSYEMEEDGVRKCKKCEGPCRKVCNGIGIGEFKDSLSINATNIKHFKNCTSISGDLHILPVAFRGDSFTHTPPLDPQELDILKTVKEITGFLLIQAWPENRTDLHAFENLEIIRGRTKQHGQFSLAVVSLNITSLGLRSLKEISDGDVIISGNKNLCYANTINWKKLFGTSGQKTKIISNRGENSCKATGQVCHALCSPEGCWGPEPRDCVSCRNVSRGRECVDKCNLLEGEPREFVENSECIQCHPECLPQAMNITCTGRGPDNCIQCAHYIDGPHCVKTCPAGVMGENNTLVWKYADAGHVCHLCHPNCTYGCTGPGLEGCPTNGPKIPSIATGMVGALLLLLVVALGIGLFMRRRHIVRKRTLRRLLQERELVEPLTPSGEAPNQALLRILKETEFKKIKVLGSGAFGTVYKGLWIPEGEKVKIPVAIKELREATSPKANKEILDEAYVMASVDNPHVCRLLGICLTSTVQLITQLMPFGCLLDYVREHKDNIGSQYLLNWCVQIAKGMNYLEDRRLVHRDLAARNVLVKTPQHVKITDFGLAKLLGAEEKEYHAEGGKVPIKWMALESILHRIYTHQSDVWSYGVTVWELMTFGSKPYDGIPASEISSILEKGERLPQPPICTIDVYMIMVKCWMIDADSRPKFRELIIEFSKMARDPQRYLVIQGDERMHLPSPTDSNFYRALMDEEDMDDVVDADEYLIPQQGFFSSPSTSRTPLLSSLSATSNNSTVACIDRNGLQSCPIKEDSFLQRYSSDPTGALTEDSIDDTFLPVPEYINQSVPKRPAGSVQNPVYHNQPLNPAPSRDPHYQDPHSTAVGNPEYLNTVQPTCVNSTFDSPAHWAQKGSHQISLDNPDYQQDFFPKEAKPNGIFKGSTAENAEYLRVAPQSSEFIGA
The target in assay [6] is EGFR (human) (UniProt P00533). The following applies: A431. This is another data set of the same source.
For assay [7], the target named is EGFR (UniProt P00533). The source holds these as a separate data set.
For assay [8], the target named is EGFR (UniProt P00533). The source holds these as a separate data set.

Chain of EGFR (human) (P00533 whole entry, looked up): as above

Turning to `C=CCN1C(=O)C(CC(=O)O)SC1=NN=C1SCC(=O)N1C` (centres undefined), the pIC50 was less than 4.00 in assay [1], less than 4.30 in assay [2] and less than 4.30 in assay [3]. The molecule also returned an inhibition in assay [4] of 0%.
On to `CCOc1cc(/C=C(/C#N)C(N)=O)cc(Cc2ccccc2)c1O`, for which the pIC50 in assay [1] was 5.05. Moreover, in assay [5], the pIC50 is 6.00 and the pKi was 5.68.
In the case of `C=C(C)CN1C(=O)C(OS(=O)(=O)O)SC1=NN=C1SCC(=O)N1C` (centres undefined), the pIC50 in assay [1] was 4.00; in assay [2], less than 4.30; in assay [3] it was less than 4.30. For the same molecule, the inhibition in assay [4] amounted to 0%.
As for `C=C(C)CN1C(=O)C(=C)SC1=NN=C1SCC(=O)N1C`, the pIC50 in assay [1] was 6.00; in assay [6] it was 5.30; in assay [2], 6.00; in assay [3], 5.81; in assay [4] (a431) it was 4.60 to 4.90.
`C=C(C)CN1C(=O)CSC1=NN=C1SCC(=O)N1C`: the pIC50 in assay [1], in assay [2] and in assay [3] was less than 4.30 each time. The inhibition in assay [4] was found to be 0%.
Molecule `O=CN/C=C/c1cc(O)ccc1O` gave a pIC50 in assay [1] of 4.90. Moreover, the pKi in assay [7] is 5.22.
Take `C=C(C)CN1C(=O)C(C)SC1=NN=C1SCC(=O)N1C` (centres undefined): the pIC50 in assay [1], in assay [2] and in assay [3] was less than 4.30 each time. For the same molecule, the inhibition in assay [4] came out at 0%.
For `C=CCN1C(=O)C(C)SC1=NN=C1SCC(=O)N1C` (centres undefined), the pIC50 in assay [1], in assay [2] and in assay [3] was less than 4.30 in each case. Also, in assay [4], the inhibition came to 0%.
In assay [1], `N#CC(C#N)=Cc1cc(O)cc(O)c1` showed a pIC50 of 4.38. Also, in assay [8], the pIC50 is 4.46 and the pKi was 4.96.
Turning to `C=C(C)CN1C(=O)C(CN(C)C)SC1=NN=C1SCC(=O)N1C` (centres undefined), the figures for the pIC50 in assay [1], in assay [2] and in assay [3] were 5.70, 6.01 and 5.79, respectively.
Regarding `C=C(C)CN1C(=O)C(CO)SC1=NN=C1SCC(=O)N1C` (centres undefined), the pIC50 in assay [1] was less than 4.30; in assay [2] it was less than 4.30; in assay [3], 4.39. This molecule also had an inhibition in assay [4] of 0%.
On to `CC(=S)N/C(C#N)=C/c1ccc(O)c(O)c1`, for which, in assay [8], the pIC50 is 5.62 and the pKi was 6.07.
As for `C=CCN1C(=O)C(=C)SC1=NN=C1SCC(=O)N1C`, the figures for the pIC50 in assay [1], in assay [2] and in assay [3] were 5.22, 5.99 and 5.82, respectively.
For the molecule `C=C(C)CN1C(=O)C(O)SC1=NN=C1SCC(=O)N1C` (centres undefined), the pIC50 in assay [1] is less than 4.00; in assay [2], less than 4.30; in assay [3], less than 4.30. The molecule further displayed an inhibition in assay [4] of 0%.

Values taken from the Kinase Knowledgebase extract (Sharma et al. 2016).
